Experimental data taken from US11440903B2, “Salt form and crystal form of compound as FGFR4 inhibitor and preparation method thereof” (GUANGDONG ZHONGSHENG PHARMACEUTICAL CO., LTD, priority 2017, dated 2022).
Where two headings read alike, the source gives them in different places.

Experiments:
[1] = molecular target: T1, FGFR4 kinase (Homo sapiens, UniProt P22455); assay: In vitro enzyme activity test, Z'-LYTE Assay, FGFR4 enzymatic reaction; assay type: biochemical; conditions: 150 μM ATP, room temperature 60 min
T1 construct: purchased Life technology
T1 sequence (P22455 22-802): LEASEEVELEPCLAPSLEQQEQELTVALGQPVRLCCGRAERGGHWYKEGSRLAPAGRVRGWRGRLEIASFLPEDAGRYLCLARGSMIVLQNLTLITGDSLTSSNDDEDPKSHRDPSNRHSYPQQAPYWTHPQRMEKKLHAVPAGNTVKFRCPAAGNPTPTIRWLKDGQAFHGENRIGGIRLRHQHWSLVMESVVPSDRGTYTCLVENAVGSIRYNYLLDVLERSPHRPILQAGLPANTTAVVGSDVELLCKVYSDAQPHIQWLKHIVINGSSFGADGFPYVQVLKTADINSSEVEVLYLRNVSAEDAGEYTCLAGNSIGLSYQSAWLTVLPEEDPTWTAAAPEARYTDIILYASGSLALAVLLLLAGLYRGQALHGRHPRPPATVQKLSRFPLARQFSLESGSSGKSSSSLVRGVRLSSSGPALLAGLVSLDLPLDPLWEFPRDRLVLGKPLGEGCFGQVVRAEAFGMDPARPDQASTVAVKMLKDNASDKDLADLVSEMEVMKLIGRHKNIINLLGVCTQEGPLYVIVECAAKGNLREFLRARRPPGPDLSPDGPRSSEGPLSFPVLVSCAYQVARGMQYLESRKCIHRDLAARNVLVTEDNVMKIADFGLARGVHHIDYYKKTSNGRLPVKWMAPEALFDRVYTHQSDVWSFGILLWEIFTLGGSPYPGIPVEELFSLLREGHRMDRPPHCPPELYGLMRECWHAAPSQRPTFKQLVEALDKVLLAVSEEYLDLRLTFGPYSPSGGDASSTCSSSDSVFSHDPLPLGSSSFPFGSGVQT
Method: (§1) The enzyme activity was detected by Z′-LYTE® Assay with IC50 value of the compound used as an index for evaluating the inhibitory effect of the compound on FGFR4 kinases. The activity test was completed in Life technology.
(§2) The test compound was subjected to 3× gradient dilution, and the final concentrations included 10 concentrations from 10 μM to 0.5 nM, with two duplicates per concentration; the content of DMSO used in the detection reaction was 1%.
[…] The detection plate was Bar-coded Corning, low volume NBS, black 384-well plate, the reaction was implemented at room temperature for 60 min, and the reaction system was 10 μL.
(§3) 5 μL Development reagent B (1:64) was added into the kinase reaction solution to stop the reaction, and the reaction solution was incubated at 23° C. for 60 min, the plate was read with Envision instrument.
(§4) The data were converted to the phosphorylation rate and the inhibitory rate, and was subjected to curve fitting with Model 205 in XLFIT (iDBS) to give the IC50 data of the compound. If the bottom of the curve was not in the range of −20% to 20%, it was set as 0%; and if the top of the curve was not in the range of 70% to 130%, it was set as 100%.

[2] = molecular target: T2, FGFR1 protein kinase (Homo sapiens, UniProt P11362); assay: In vitro enzyme activity test, Z'-LYTE Assay, FGFR1 enzymatic reaction; assay type: biochemical; conditions: 25 uM ATP, room temperature 60 min
T2 construct: purchased Life technology
T2 sequence (P11362 22-822): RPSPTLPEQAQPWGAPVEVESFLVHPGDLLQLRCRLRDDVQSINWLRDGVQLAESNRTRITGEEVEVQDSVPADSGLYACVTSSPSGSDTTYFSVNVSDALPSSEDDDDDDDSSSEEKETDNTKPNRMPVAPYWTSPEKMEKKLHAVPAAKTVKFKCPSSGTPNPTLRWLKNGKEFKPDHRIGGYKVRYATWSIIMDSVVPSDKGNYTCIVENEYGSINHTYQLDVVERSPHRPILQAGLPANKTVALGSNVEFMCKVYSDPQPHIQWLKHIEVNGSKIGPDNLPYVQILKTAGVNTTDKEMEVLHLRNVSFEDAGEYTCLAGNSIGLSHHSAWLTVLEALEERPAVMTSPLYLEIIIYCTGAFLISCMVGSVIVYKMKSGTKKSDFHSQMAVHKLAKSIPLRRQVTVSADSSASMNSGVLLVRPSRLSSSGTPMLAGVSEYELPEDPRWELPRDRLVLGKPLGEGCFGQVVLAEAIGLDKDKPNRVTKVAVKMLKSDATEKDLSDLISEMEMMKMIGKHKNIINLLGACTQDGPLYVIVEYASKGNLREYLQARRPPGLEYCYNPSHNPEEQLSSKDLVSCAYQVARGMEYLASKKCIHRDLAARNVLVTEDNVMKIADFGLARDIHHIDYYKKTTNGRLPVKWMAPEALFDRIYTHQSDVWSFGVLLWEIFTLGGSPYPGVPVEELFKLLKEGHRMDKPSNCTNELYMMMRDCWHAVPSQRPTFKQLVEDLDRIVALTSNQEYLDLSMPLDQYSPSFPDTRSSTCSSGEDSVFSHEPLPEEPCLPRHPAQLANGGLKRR
Method: as §1, §2
1 nM FGFR1 protein kinase, 2 μM Tyr4 peptide, 25 uM ATP, 50 mM HEPES (pH 7.5), 10 mM MgCl2, 1 mM EGTA, 0.01% BRIJ-35, 2 mM MnCl2, and 1 mM DTT. The detection plate was Black Proxiplate 384-Plus plate (PerkinElmer), the reaction was implemented at room temperature for 60 min, and the reaction system was 10 μL.
as §3, §4

[3] = Stability of the crystal form on stirring as suspension in solvent (40° C., 2 days); assay type: physicochemical; conditions: stirring in acetone at 40° C.
Method: 30 mg of the compound represented by formula (I) was weighed and added into a glass flask, 400 μL acetonitrile-water (1:1) was added to form a suspension. A sample of the suspension was placed on a magnetic stirrer (40° C.) for a dark stirring experiment. The sample of the suspension was centrifuged after stirring at 40° C. for 2 days, and then the residual sample was dried in a vacuum drying oven (30° C.) overnight to give a crystal form A of the compound represented by formula (I). The XRPD pattern of the crystal form A of the compound represented by formula (I) is shown in FIG. 1, the DSC pattern is shown in FIG. 2, and the TGA pattern is shown in FIG. 3.
30 mg of the compound represented by formula (I) was weighed and added into a glass flask, and 400 μL ethyl acetate was added to form a suspension. A sample of the suspension was placed on a magnetic stirrer (40° C.) for dark stirring experiment. The sample of the suspension was centrifuged after stirring at 40° C. for 2 days, and then the residual sample was dried in a vacuum drying oven (30° C.) overnight. The crystal form was detected by XRPD to give a crystal form A of the compound represented by formula (I).
30 mg of the compound represented by formula (I) was weighed and added into a glass flask, and 400 μL methanol was added to form a suspension. A sample of the suspension was placed on a magnetic stirrer (40° C.) for dark stirring experiment. The sample of the suspension was centrifuged after stirring at 40° C. for 2 days, and then the residual sample was dried in a vacuum drying oven (30° C.) overnight to give a crystal form B of the compound represented by formula (I). The XRPD pattern of the crystal form B of the compound represented by formula (I) is shown in FIG. 4, the DSC pattern is shown in FIG. 5, and the TGA pattern is shown in FIG. 6.
50 mg of the compound represented by formula (I) was weighed and added into a 1.5 mL liquid vial, and 200 μL methanol was added thereto, the obtained mixture was homogeneously mixed under ultrasound. The dissolved sample was quickly centrifuged, and the supernatant was placed in a centrifuge tube, the mouth of the tube was packed with a pierced aluminum foil, and then the tube was placed in a fume cupboard for volatilization; the sample of the suspension was placed on a magnetic stirring heater (40° C.) for stirring (in dark), and quickly centrifuged after 2 days. The resultant solid was collected and dried at 30° C. in a vacuum drying oven overnight to give the crystal form C of the compound represented by formula (I). The XRPD pattern of the crystal form C of the compound represented by formula (I) is shown in FIG. 7, the DSC pattern is shown in FIG. 8, and the TGA pattern is shown in FIG. 9.
50 mg of the compound represented by formula (I) was weighed and added into a 1.5 mL liquid vial, and 200 μL ethanol was added thereto, and the obtained mixture was homogeneously mixed under ultrasound. The dissolved sample was quickly centrifuged, the supernatant was placed into a centrifuge tube, and the mouth of the tube was packed with a pierced aluminum foil, and placed in a fume cupboard for volatilization; the sample of the suspension was placed on a magnetic stirring heater (40° C.) for stirring (in dark), and quickly centrifuged after 2 days. The solid obtained as above was collected and dried at 30° C. in a vacuum drying oven overnight to give a crystal form D of the compound represented by formula (I). The XRPD pattern of the crystal form D of the compound represented by formula (I) is shown in FIG. 10, the DSC pattern is shown in FIG. 11, and the TGA pattern is shown in FIG. 12.
35 mg of the compound represented by formula (II) was weighed and added into a 1.5 mL liquid vial, and 400 μL methanol was added thereto, and the obtained mixture was homogeneously mixed under ultrasound. […]

[4] = Solubility test in biological media (FaSSIF, FeSSIF, SGF) and water, 37° C.; assay type: physicochemical; conditions: for Status (24 h) / solubility at 24 h / pH 24 hours: 37° C.; for Status (24 h): about 4 mg in 2 mL; for solubility at 24 h: salt forms converted to salt concentrations, read-out: Solubility (mg/mL) 24 hours; for pH 24 hours: supernatant; for pH 0 hour: initial
Method: Step 1: Preparation of Control Solutions (0.2 mg/mL, calculated by free base)
2 mg the crystal form B of the compound represented by formula (I) (or 2.4 mg the crystal form E of the compound represented by formula (II)) as a control was precisely weighed and placed into a 40 mL glass vial, and a diluent (10 mL) was precisely added. The reaction solution was subjected to ultrasonic treatment for 20 min to sufficiently dissolve, then cooled to room temperature and shaked well. Two control solutions (STD #1, STD #2) were formulated in accordance with this method.
Step 2: Preparation of Linear Solutions
The control solution STD #1 of the crystal form B of the compound represented by formula (I) was 1×, 10×, 100×, 1000× and 2000× (free base LOQ) diluted, and designated as the linear solutions L1, L2, L3, L4 and L5; the control solution STD #1 of the crystal form E of the compound represented by formula (II) was 1×, 10×, 100× and 1000× (methanesulfonate LOQ) diluted, and designated as the linear solutions L1, L2, L3, L4.
Step 3: Solubility Test of the crystal form B of the compound represented by formula (I), the crystal form G of the compound represented by formula (III) and the crystal form E of the compound represented by formula (II) in biological media and water
4 samples (about 4 mg) of each of the crystal form B of the compound represented by formula (I), the crystal form E of the compound represented by formula (II), and the crystal form G of the compound represented by formula (III) were added into 12 glass vials (4 mL), respectively, and then 2 mL different biological media (FaSSIF, FeSSIF, SGF) and water were added into each compound respectively, then mixed homogeneously to form a suspension. The suspension was detected for its initial pH value. A magnet was added into the suspension, and placed on a magnetic stirring heater for stirring (at a temperature of 37° C., in dark). After stirring for 24 h, a sample was taken. The taken sample was quickly centrifuged, and the residual solid was detected by XRPD. The supernatant was detected for its pH value and diluted with a diluent into appropriate multiple, then measured with HPLC for its concentration.
FaSSIF: 1. 0.042 g sodium hydroxide, 0.3438 g sodium dihydrogen phosphate and 0.6186 g sodium chloride were weighed, added into 90 mL purified water, and homogeneously mixed, then, the mixture was adjusted with 1 N hydrochloric acid or 1 N sodium hydroxide to pH=6.5, and diluted into a constant volume of 100 mL with purified water; 2. 50 mL of the buffer described above was taken, and 0.224 g commercially available powder (Biorelevant.com) of FaSSIF/FeSSIF/FaSSGF was added thereto, the mixture was stirred to dissolve, and diluted with purified water to a constant volume of 100 mL.
FeSSIF: 1. 0.404 g sodium hydroxide, 0.865 g glacial acetic acid, and 1.1874 g sodium chloride were weighed, added into 90 mL purified water, and homogeneously mixed, then, the mixture was adjusted with 1 N hydrochloric acid or 1 N sodium hydroxide to pH=5.0, and diluted with purified water to a constant volume of 100 mL, 2. 50 mL of the buffer described above was taken, and 1.12 g commercially available powder (Biorelevant.com) of FaSSIF/FeSSIF/FaSSGF was added thereto, the mixture was stirred to dissolve, and diluted with purified water to a constant volume of 100 mL.
FaSSGF (SGF): 1. 0.2 g sodium chloride was weighed, added into 90 mL purified water, and mixed homogeneously, the mixture was adjusted with 1 N hydrochloric acid to pH=1.8, and diluted with purified water to a constant volume of 100 mL, and stood at room temperature.

Row | IC50 [1] [nM] | IC50 [2] [nM] | stability in the acetone solution [3] | Status (24 h) ([4]; FaSSIF) | solubility in three types of biological media, conclusion in words ([4]; FaSSIF, FeSSIF, SGF) | Status (24 h) ([4]; FeSSIF) | solubility at 24 h ([4]; SGF (FaSSGF), pH 1.8, simulated gastric fluid, thermodynamic from solid, SGF) [mg/mL] | Status (24 h) ([4]; SGF) | Status (24 h) ([4]; Water) | solubility at 24 h ([4]; pH 5, thermodynamic from solid, FeSSIF) [mg/mL] | solubility at 24 h ([4]; pH 6.5, thermodynamic from solid, FaSSIF) [mg/mL] | pH 24 hours ([4]; FaSSIF) | pH 24 hours ([4]; FeSSIF) | pH 24 hours ([4]; SGF) | pH 24 hours ([4]; Water) | pH 0 hour ([4]; suspension in FaSSIF) | pH 0 hour ([4]; suspension in FeSSIF) | pH 0 hour ([4]; suspension in SGF) | pH 0 hour ([4]; suspension in Water) | solubility at 24 h ([4]; thermodynamic from solid, Water) [mg/mL] | Structure (SMILES)
1 | 17 | 1460 | – | – | – | – | – | – | – | – | – | – | – | – | – | – | – | – | – | – | C=CC(=O)N[C@H]1COC[C@H]1Nc1ncc(/C=C(\F)c2c(Cl)c(OC)cc(OC)c2Cl)cn1 [Compound represented by formula (I)]
2 | – | – | substantially high stability | Suspension | good solubility | Suspension | 0.045 | Suspension | Suspension | 0.668 | 0.079 | 6.38 | 4.99 | 2.14 | 2.47 | 6.54 | 4.87 | 2.03 | 2.34 | 0.028 | C=CC(=O)N[C@H]1COC[C@H]1Nc1ncc(/C=C(\F)c2c(Cl)c(OC)cc(OC)c2Cl)cn1.O=S(=O)(O)O
